Assay results published in PubChem BioAssay (NCI).
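Values below derive from 48-hour exposures of cells grown in 96-well plates, with endpoints linearly interpolated between the two concentrations bracketing the appropriate inhibition level. TGI denotes the concentration required for complete inhibition of growth.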

Columns and labels:
Assay in all cases: DTP human tumour cell line panel, 48 h
DMS 114 small cell lung = tested on: DMS 114 small cell lung
SK-MEL-2 melanoma = tested on: SK-MEL-2 melanoma
SK-OV-3 ovarian = tested on: SK-OV-3 ovarian
EKVX NSCLC = tested on: EKVX NSCLC
SNB-75 CNS = tested on: SNB-75 CNS
MALME-3M melanoma = tested on: MALME-3M melanoma
HOP-92 NSCLC = tested on: HOP-92 NSCLC
A498 renal = tested on: A498 renal
DMS 273 small cell lung = tested on: DMS 273 small cell lung
A549 NSCLC = tested on: A549 NSCLC
OVCAR-3 ovarian = tested on: OVCAR-3 ovarian
UACC-62 melanoma = tested on: UACC-62 melanoma
CAKI-1 renal = tested on: CAKI-1 renal
HL-60(TB) leukemia = tested on: HL-60(TB) leukemia
OVCAR-4 ovarian = tested on: OVCAR-4 ovarian
KM20L2 colon = tested on: KM20L2 colon
SK-MEL-28 melanoma = tested on: SK-MEL-28 melanoma
XF 498 CNS = tested on: XF 498 CNS
OVCAR-5 ovarian = tested on: OVCAR-5 ovarian
M19-MEL melanoma = tested on: M19-MEL melanoma
RXF 393 renal = tested on: RXF 393 renal
M14 melanoma = tested on: M14 melanoma
NCI-H522 lung = tested on: NCI-H522 lung
LOX IMVI melanoma = tested on: LOX IMVI melanoma
MOLT-4 leukemia = tested on: MOLT-4 leukemia
UO-31 renal = tested on: UO-31 renal
OVCAR-8 ovarian = tested on: OVCAR-8 ovarian
HCC-2998 colon = tested on: HCC-2998 colon
SN12C renal = tested on: SN12C renal
SNB-19 CNS = tested on: SNB-19 CNS
CCRF-CEM leukemia = tested on: CCRF-CEM leukemia
SF-539 CNS = tested on: SF-539 CNS
NCI-H460 lung = tested on: NCI-H460 lung
SNB-78 CNS = tested on: SNB-78 CNS
K-562 leukemia = tested on: K-562 leukemia
NCI-H226 lung = tested on: NCI-H226 lung
HCT-15 colon = tested on: HCT-15 colon
DLD-1 colon = tested on: DLD-1 colon
TK-10 renal = tested on: TK-10 renal
SF-295 CNS = tested on: SF-295 CNS
LXFL 529 NSCLC = tested on: LXFL 529 NSCLC
SF-268 CNS = tested on: SF-268 CNS
HT29 colon = tested on: HT29 colon
HOP-62 NSCLC = tested on: HOP-62 NSCLC
SW-620 colon = tested on: SW-620 colon
NCI-H23 lung = tested on: NCI-H23 lung
786-0 renal = tested on: 786-0 renal
RPMI-8226 leukemia = tested on: RPMI-8226 leukemia
ACHN renal = tested on: ACHN renal
COLO 205 colon = tested on: COLO 205 colon
UACC-257 melanoma = tested on: UACC-257 melanoma
HCT-116 colon = tested on: HCT-116 colon
KM12 colon = tested on: KM12 colon
HOP-18 NSCLC = tested on: HOP-18 NSCLC
SR leukemia = tested on: SR leukemia
U251 CNS = tested on: U251 CNS

Measured: TGI

CCO/C=C1\N=C(c2ccccc2Br)OC1=O
> 100 µM: DMS 114 small cell lung | SK-MEL-2 melanoma | SK-OV-3 ovarian | EKVX NSCLC | SNB-75 CNS | MALME-3M melanoma | HOP-92 NSCLC | A498 renal | DMS 273 small cell lung | A549 NSCLC | OVCAR-3 ovarian | UACC-62 melanoma | CAKI-1 renal | HL-60(TB) leukemia | OVCAR-4 ovarian | KM20L2 colon | SK-MEL-28 melanoma | XF 498 CNS | OVCAR-5 ovarian | M19-MEL melanoma | RXF 393 renal | M14 melanoma | NCI-H522 lung | LOX IMVI melanoma | MOLT-4 leukemia | UO-31 renal | OVCAR-8 ovarian | HCC-2998 colon | SN12C renal | SNB-19 CNS | CCRF-CEM leukemia | SF-539 CNS | NCI-H460 lung | SNB-78 CNS | K-562 leukemia | NCI-H226 lung | HCT-15 colon | DLD-1 colon | TK-10 renal | SF-295 CNS | LXFL 529 NSCLC | SF-268 CNS | HT29 colon | HOP-62 NSCLC | SW-620 colon | NCI-H23 lung | 786-0 renal | RPMI-8226 leukemia | ACHN renal | COLO 205 colon | UACC-257 melanoma

CCOC1=C2N=C(Cc3ccccc3F)N=C2C(=O)c2ccccc21
> 100 µM: DMS 114 small cell lung | SK-MEL-2 melanoma | HCT-116 colon | EKVX NSCLC | SNB-75 CNS | MALME-3M melanoma | HOP-92 NSCLC | DMS 273 small cell lung | KM12 colon | A549 NSCLC | OVCAR-3 ovarian | UACC-62 melanoma | CAKI-1 renal | HL-60(TB) leukemia | OVCAR-4 ovarian | KM20L2 colon | SK-MEL-28 melanoma | XF 498 CNS | M19-MEL melanoma | RXF 393 renal | M14 melanoma | NCI-H522 lung | MOLT-4 leukemia | UO-31 renal | OVCAR-8 ovarian | HCC-2998 colon | SN12C renal | SNB-19 CNS | HOP-18 NSCLC | CCRF-CEM leukemia | SR leukemia | SF-539 CNS | NCI-H460 lung | K-562 leukemia | NCI-H226 lung | HCT-15 colon | DLD-1 colon | U251 CNS | SF-295 CNS | LXFL 529 NSCLC | SF-268 CNS | HT29 colon | HOP-62 NSCLC | SW-620 colon | NCI-H23 lung | 786-0 renal | RPMI-8226 leukemia | ACHN renal | COLO 205 colon | UACC-257 melanoma
